# According to US9249159B2, “Composition for treating hepatitis C virus, regulating phosphorylation of replicase” (Industry-Academic Cooperation Foundation, Yonsei University, priority 2011, dated 2016):
# Columns and labels:
# pan-PKC (α, β, and γ) = experiment: pan-PKC level in Huh7 cell by immunoblotting; type: cell-based; conditions: 48 hours
# From the text: (§1) Total cell lysates from cells treated with inhibitors or IFN-α by using antibodies to PDK1, p-PDK1 (S241), PRK2, and p-PRK2 (T816) (products of Cell Signaling Technology, Inc., Beverly, Mass., USA) was used for immunoblotting. In order to detect PKC isoforms α, β, and γ, a polyclonal antibody to a consensus sequence present in three PKC (protein kinase C) isoforms α, β and γ (anti-pan-PKC; Zymed Laboratories, San Francisco, Calif., USA) was used. An anti-α-tubulin antibody (Oncogene Research Products, Cambridge, Mass., USA) was carried out in immunoblotting for checking whether or not the same amount of protein was loaded.
# In order to test whether or not PDK1 in Huh7 as an HCC cell line was destabilized by inhibition of Hsp90, 17-DMAG as a second-generation geldanamycin derivative known as being safer than geldanamycin or its derivative 17-AAG and effective for oral delivery was used (FIG. 8A). The Huh7 cell was treated for 48 hours along with an increase in concentration of 17-DMAG, and a steady state level of PDK1 was evaluated by immunoblotting.
# PDK1 = PDK1 level and activation in R-1 cell by immunoblotting; type: cell-based; conditions: 10 or 50 nM, 72 hours
# From the text: as §1
# Therefore, anti-HCV activity of 17-DMAG in the R-1 cell was tested at a level lower than 50 nM. To do so, the R-1 cell was treated with a vehicle (0.25% DMSO) or 17-DMAG for 72 hours and the cell lysates (50 μg) and antibodies specific to the proteins were immunoblotted to measure levels of the proteins. An anti-α-tubulin antibody (lower end panel) was used as an internal loading control. The levels of the proteins were measured by densitometric analysis of immunoblot, and the phosphorylated amounts and relative intensities calculated with respect to PDK1 and PDK2 were converted with respect to α-tubulin signals and then quantitated. As a result of three independent experiments showing similar results, a representative blot picture was illustrated. […]
# HCV NS5B = experiment: NS5B phosphorylation in Huh7TR-NS cell (anti-p-Ser immunoprecipitation, anti-NS5B immunoblot); type: cell-based, hepatitis C virus; conditions: 17-DMAG 50 nM or HA1077 20 μM, 48 hours
# Procedure: The human hepatoma stable cell lines Huh7TR-4 and Huh7TR-NS [17], which express the tetracycline repressor and the HCV NS proteins (NS3-NS5) in a tetracycline-inducible manner, respectively, were maintained in the presence of blasticidin S (10 μg/mlL and Zeocine (100 μg/mL). NS protein expression in Huh7TR-NS was induced by addition of 1 μg/mL tetracycline for 24 h. The Huh7 cell-derived cell line R-1, supporting stable, autonomous replication of genotype 1b HCV subgenomic replicon RNA, was described previously. 17-DMAG, the PRK2 inhibitor, HA1077, and the inhibitor of phosphatidylinositol 3-kinase (PI3K), LY294002, were obtained from Sigma-Aldrich (St. Louis, Mo., USA) and Calbiochem Inc. (La Jolla, Calif., USA), and Biomol (Plymouth Meeting, Pa., USA), respectively. IFN-α was purchased from Sigma-Aldrich (1-4276).
# For co-immunoprecipitation experiment, the cells were resuspended in lysis buffer A (100 mM Tris-HCl, pH 8.0, 150 mM NaCl, 1% Triton X-100, 10 mM NaF, 1 mM Na3VO4, 17.5 mM β-glycerophosphate) supplemented with an EDTA-free protease inhibitor cocktail (Roche Applied Science, Indianapolis, Ind., USA) and incubated on ice for 30 min. […]
# Then, treatment with 17-DMAG (50 nM) or HA1077 (20 μM), a PRK2 inhibitor, was carried out for 48 hours. […] A case without treatment with an inhibitor was expressed as (−).
# Huh7 cells = experiment: Cell cycle analysis of Huh7 cells by flow cytometer; type: cell-based, human; conditions: 48 hours, 17-DMAG 500 nM
# Procedure: The Huh7 cell treated with 17-DMAG or HA1077 for 48 hours was collected and washed with PBS. The cells were fixed with chilled ethanol for 30 min, treated with RNase A (100 μg/ml) for 5 min at room temperature, stained with 50 μg/mL propidium iodide (PI, Sigma-Aldrich) for 30 min at 37° C., and analyzed using a FACS Calibur flow cytometer (Becton Dickinson, San Jose, Calif., USA).
# Then, a cell cycle assay was carried out by using a flow cytometer. Huh7 cells were treated with DMSO (0.25%) or 500 nM of 17-DMAG for 48 hours, and a cell cycle thereof was analyzed by using a flow cytometer to show the percentage of cells in G1, S, and G2/M phases. LY294002 as a PI3K inhibitor was used as a positive control.
smiles,measurement,setting,value
"CO[C@H]1/C=C\C=C(/C)C(=O)NC2=CC(=O)C(NCCN(C)C)=C(C[C@@H](C)C[C@H](OC)[C@H](O)[C@@H](C)/C=C(\C)[C@@H]1OC(N)=O)C2=O [17-DMAG, 17-(dimethylaminoethylamino)-17-demethoxygeldanamycin]","steady state content of pan-PKC (α, β, and γ)","pan-PKC (α, β, and γ)",not significantly affected
same,level of PDK1,PDK1,decreased
same,NS5B phosphorylation,HCV NS5B,inhibited NS5B phosphorylation
same,"cell cycle (G1, S, G2/M phases)",Huh7 cells,not significantly changed
